# According to US20010053772A1, “Aza analogues of alkyl lysophospholipids exert immunomodulatory effects” (priority 2000, published 2001):
# Legend:
# TNF-α [1] = conditions: cited from earlier work
# TNF-α [2] = test: TNF-α secretion by human PBM, ELISA of supernatants; format: cell-based; conditions: for effect on BN52207 induced secretion of TNF-α: PBM 18 hours with BN52207 (5 μg/ml), emetine (1 μg/ml), cycloheximide (5 μg/ml)
# Protocol: Also referring to FIG. 2, the AALP analogues, are therein shown to have immunoregulatory properties. The effect of AALP on the secretion of TNF-α, IL-1β, IL-6, and IL-10 cytokines by both resting and LPS and IFN-γ activated human peripheral blood derived monocytes. Human PBM were incubated for 18 hours at 37° C. in the absence or in the presence of different concentrations of AALP analogues. The cell-free supernatants were harvested and clarified by centrifugation and assessed for the presence of TNF-α, IL-1β, and IL-6 by Enzyme Linked Immunosorbant Assay (ELISA). For TNF-α, there was stimulation of secretion by all compounds at concentrations >0.6 μg/ml and up to 10 μg/ml. […] Similar findings were also obtained for IL-1β. There was no significant difference in the levels of stimulated TNF-α and IL-1β among the five AALP compounds. In contrast to TNF-α and IL-1β, there was no significant stimulation of IL-6 above background levels upon stimulation by any of the five AALP analogues. However, there was significant inhibition of IL-6 secretion at 10 μg/ml and the levels were below the spontaneous secretion of IL-6.
# As a result of the similarity of results of the five AALP on PBM, BN52207 was selected to conduct the following experiments. However, it is to be understood that any other AALP analogue may be used to obtain a similar result. Now referring to FIG. 3, human PBM were incubated for 18 hours at 37° C. in the presence or absence of different concentration of BN52207. The PBM were left untreated or treated with IFN-γ (500 U/ml) or LPS (1 μg/ml) added at the initiation of the culture. The supernatants were harvested, clarified by centrifugation, and stored at −70° C. The levels of TNF-α with IFN-γ (FIG. 3A), LPS (FIG. 3B), or BN+LPS (FIG. 3C) activated PBM were assessed by ELISA.
# BN52207 potentiated the secretion of TNF-α from IFN-γ-activated PBM and LPS-activated PBM. […] Now referring to FIG. 4, to confirm de novo synthesis of TNF-α mRNA PBM were treated with protein synthesis inhibitors. PBM were incubated for 18 hours with BN52207 (5 μg/ml) in the absence or presence of LPS (1 μg/ml), LPS (1 μg/ml) plus pentoxifylline (50 μg/ml), emetine (1 μg/ml), and cycloheximide (5 μg/ml). The cell-free supernatants were collected and clarified by centrifugation and the level of TNF-α in the supernatants was assessed by ELISA.
# Now referring to FIGS. 8 A, B, and C, the kinetics of induction/inhibition of cytokine secretion by AALP were examined. […]
# Human peripheral blood was obtained from normal volunteers as per HSPC guidelines of UCLA. […] The adherent cells prepared by this procedure were primarily monocytes (>90%) as determined by esterase staining and flow cytometry using markers for monocytes, T cells, B cells, and NK cells. […]
compound,measurement,setting,value
CC1C(=O)OC2C(O)C34C5CC(C(C)(C)C)C36C(OC(=O)C6O)OC4(C(=O)O5)C12O (centres unmarked) [BN52021],effect on TNF-α augmented production by PAF in monocytes,TNF-α [1],blocks
"C[C@@H]1C[C@@H]([C@H](O)CC2CC(=O)NC(=O)C2)C(=O)[C@@H](C)C1 [CHX, cycloheximide]",effect on BN52207 induced secretion of TNF-α,TNF-α [2]; FIG. 4,inhibited
CC[C@H]1CN2CCc3cc(OC)c(OC)cc3[C@@H]2C[C@@H]1C[C@H]1NCCc2cc(OC)c(OC)cc21 [emetine],effect on BN52207 induced secretion of TNF-α,TNF-α [2]; FIG. 4,inhibited
CC(=O)CCCCn1c(=O)c2c(ncn2C)n(C)c1=O [pentoxifylline],effect on BN enhanced stimulation of TNF-α secretion by LPS stimulated PBM,"TNF-α [2]; PBM 18 hours, BN52207 (5 μg/ml) + LPS (1 μg/ml) + pentoxifylline (50 μg/ml), FIG. 4",inhibited
"IFN-γ: recombinant interferon-γ, a gift from Genentech",TNF-α secretion on stimulation of PBM with IFN-γ alone,"TNF-α [2]; IFN-γ (500 U/ml), 18 hours, FIG. 3A",results in the secretion of TNF-α
